Reference: ChEMBL document CHEMBL3085646, “Sulfur-containing cytotoxic curvularin macrolides from Penicillium sumatrense MA-92, a fungus obtained from the rhizosphere of the mangrove Lumnitzera racemosa” (J Nat Prod, 2013)

How the values were obtained:
[1] = tested on: SW1990; assay: Cytotoxic activity against human SW1990 cells; assay type: functional, cell-based
[2] = tested on: NCI-H460; assay: Cytotoxic activity against human NCI-H460 cells; assay type: functional, cell-based
[3] = Cytotoxic activity against human SGC7901 cells; assay type: functional, cell-based, SGC-7901
[4] = tested on: MCF7; assay: Cytotoxic activity against human MCF7 cells; assay type: functional, cell-based
[5] = tested on: HeLa; assay: Cytotoxic activity against human HeLa cells; assay type: functional, cell-based
[6] = tested on: Huh-7; assay: Cytotoxic activity against human HuH7 cells; assay type: functional, cell-based
[7] = tested on: DU-145; assay: Cytotoxic activity against human DU145 cells; assay type: functional, cell-based
[8] = Homo sapiens, SW1990, read-out: IC50
[9] = Homo sapiens, NCI-H460, read-out: IC50
[10] = Homo sapiens, SGC-7901, read-out: IC50
[11] = Homo sapiens, MCF7, read-out: IC50
[12] = Homo sapiens, HeLa, read-out: IC50
[13] = Homo sapiens, Huh-7, read-out: IC50
[14] = Homo sapiens, DU-145, read-out: IC50

| Compound | IC50 [1, 8] | IC50 [2, 9] | IC50 [3, 10] | IC50 [4, 11] | IC50 [5, 12] | IC50 [6, 13] | IC50 [7, 14] | further results |
| --- | --- | --- | --- | --- | --- | --- | --- | --- |
| COC(=O)[C@H](O)CS[C@H]1CCC[C@H](C)OC(=O)Cc2cc(O)cc(O)c2C(=O)C1 | 10 µM | 3.8 µM | 5.5 µM | 4.4 µM | 6 µM | 3.9 µM | 6 µM | – |
| CC(=O)OCCOC(=O)[C@@H](CS[C@H]1CCC[C@H](C)OC(=O)Cc2cc(O)cc(O)c2C(=O)C1)OC(C)=O | 11 µM | 4.6 µM | 6.8 µM | 4.7 µM | 8 µM | 5.5 µM | 7 µM | – |
| C[C@H]1CCC[C@H](SC[C@@H](O)C(=O)O)CC(=O)c2c(O)cc(O)cc2CC(=O)O1 | 11 µM | 7 µM | 8.5 µM | 4.4 µM | 6 µM | 5.1 µM | 6 µM | – |
| CC1CCCCCC(=O)c2c(O)cc(O)cc2CC(=O)O1 (centres undefined) [CURVULARIN] | – | – | – | – | – | – | – | IC50 ([1]; sw1990): Not Active; IC50 ([2]; nci-h460): Not Active; IC50 ([3]; sgc-7901): Not Active; IC50 ([4]; mcf7): Not Active; IC50 ([5]; hela): Not Active; IC50 ([6]; huh-7): Not Active; IC50 ([7]; du-145): Not Active |
| C[C@H]1CCC/C=C/C(=O)c2c(O)cc(O)cc2CC(=O)O1 [DEHYDROCURVULARIN] | 10 µM | 5 µM | 6 µM | 4 µM | 6 µM | 5 µM | 6 µM | – |
| COc1cccc2c1C(=O)c1c(O)c3c(c(O)c1C2=O)C[C@@](O)(C(=O)CO)C[C@@H]3O[C@H]1C[C@H](N)[C@H](O)[C@H](C)O1 [DOXORUBICIN] | – | – | 0.011 µM | – | – | – | – | – |
| O=c1[nH]cc(F)c(=O)[nH]1 [FLUOROURACIL] | – | – | – | – | – | – | 3.4 µM | – |
| Nc1ccn([C@@H]2O[C@H](CO)[C@@H](O)C2(F)F)c(=O)n1 [GEMCITABINE] | 1.6 µM | – | – | – | – | – | – | – |
| CC(=O)O[C@H]1C(=O)[C@@]2(C)[C@H]([C@H](OC(=O)c3ccccc3)[C@]3(O)C[C@H](OC(=O)[C@H](O)[C@@H](NC(=O)c4ccccc4)c4ccccc4)C(C)=C1C3(C)C)[C@]1(OC(C)=O)CO[C@@H]1C[C@@H]2O [PACLITAXEL] | – | – | – | – | 12 µM | – | – | – |
